Columns and labels:
[1] = Compound induced cellular toxicity in HepG2 cells (ATPlite); format: cell-based; conditions: human, three days, ATPlite 1 Step, concentration reducing total ATP levels by 50% relative to no drug controls
Procedure: At day 3, post seeding cells are treated with ATPlite 1 Step according to the manufacturer's instructions.

2.2.15 cells = assay: Antiviral activity in 2.2.15 cells: reduction of viral product accumulation (qPCR, HBsAg/HBeAg ELISA); format: cell-based, HBV; conditions: Hepatitis B virus, 120 h, day 5 post treatment, concentration reducing viral product accumulation in cell lysates or supernatants by 50% relative to no drug controls
Procedure: 2.2.15 cells are passaged upon attaining confluency in DMEM/F12 media in the presence of 10% FBS, Penn/Strep, and 250 ug/mL G418. Novel compounds are 5 fold serially diluted in DMSO and added to 96 well plates containing 35,000 cells/well at a 1:200 dilution so that the final concentration of DMSO is 0.5%. On day 5, post treatment cell lysates and supernatants are harvested for analysis.
Cells are lysed using Agilent Sidestep Lysis buffer, diluted 1:100 and quantified via quantitative real time PCR. Commercially available ELISA kits are used to quantitate the viral proteins HBsAg (Alpco) or HBeAg (US Biological) by following the manufacturer's recommended protocol after diluting samples to match the linear range of their respective assays. Irrespective of readout, compound concentrations that reduce viral product accumulation in the cell lysates or supernatants by 50% relative to no drug controls (EC50) are reported; EC50 ranges are as follows: A<0.1 μM; B 0.1-1 μM; C>1 μM.

| SMILES | CC50 at 3 days [1] [nM] | EC50 (2.2.15 cells) [nM] |
| --- | --- | --- |
| CCC1Cc2c(oc3ccccc23)-c2cc(=O)c(C(=O)O)cn21 (stereo not drawn) [Example 1, 6-ethyl-2-oxo-6,7-dihydro-2H-benzofuro[2,3-a]quinolizine-3-carboxylic acid] | > 25000 | 100 to 1000 |
| O=C(O)c1cn2c(cc1=O)-c1oc3ccccc3c1CC2c1ccccc1 (stereo not drawn) [Example 2, 2-oxo-6-phenyl-6,7-dihydro-2H-benzofuro[2,3-a]quinolizine-3-carboxylic acid] | > 25000 | > 1000 |
| CC(C)(C)[C@@H]1Cc2c(oc3ccccc23)-c2cc(=O)c(C(=O)O)cn21 [Example 3, (S)-6-(tert-butyl)-2-oxo-6,7-dihydro-2H-benzofuro[2,3-a]quinolizine-3-carboxylic acid] | > 25000 | < 100 |
| CC(C)(C)[C@@H]1Cc2c(oc3c(OC(F)F)cccc23)-c2cc(=O)c(C(=O)O)cn21 [Example 4, (S)-6-(tert-butyl)-11-(difluoromethoxy)-2-oxo-6,7-dihydro-2H-benzofuro[2,3-a]quinolizine-3-carboxylic acid] | > 25000 | < 100 |
| CC(C)(C)[C@@H]1Cc2c(oc3cc(-c4ccoc4)ccc23)-c2cc(=O)c(C(=O)O)cn21 [Example 5, (S)-6-(tert-butyl)-10-(furan-3-yl)-2-oxo-6,7-dihydro-2H-benzofuro[2,3-a]quinolizine-3-carboxylic acid] | – | < 100 |
| CC(C)(C)[C@@H]1Cc2c(oc3cc(OC(F)F)ccc23)-c2cc(=O)c(C(=O)O)cn21 [Example 6, (S)-6-(tert-butyl)-10-(difluoromethoxy)-2-oxo-6,7-dihydro-2H-benzofuro[2,3-a]quinolizine-3-carboxylic acid] | 10000 to 25000 | < 100 |
| CC(C)(C)[C@@H]1Cc2c(oc3cc(OC(F)F)ccc23)-c2cc(=O)c(-c3ncn[nH]3)cn21 [Example 7, (S)-6-(tert-butyl)-10-(difluoromethoxy)-3-(1H-1,2,4-triazol-5-yl)-6,7-dihydro-2H-benzofuro[2,3-a]quinolizin-2-one] | > 25000 | < 100 |
| CC(C)(C)[C@@H]1Cc2c(oc3c(OC(F)F)cccc23)-c2cc(=O)c(-c3ncn[nH]3)cn21 [Example 8, (S)-6-(tert-butyl)-11-(difluoromethoxy)-3-(1H-1,2,4-triazol-5-yl)-6,7-dihydro-2H-benzofuro[2,3-a]quinolizin-2-one] | > 25000 | < 100 |
| Cn1ccc(-c2ccc3c4c(oc3c2)-c2cc(=O)c(C(=O)O)cn2[C@H](C(C)(C)C)C4)n1 [Example 9, (S)-6-(tert-butyl)-10-(1-methyl-1H-pyrazol-3-yl)-2-oxo-6,7-dihydro-2H-benzofuro[2,3-a]quinolizine-3-carboxylic acid] | – | < 100 |
| Cn1cc(-c2ccc3c4c(oc3c2)-c2cc(=O)c(C(=O)O)cn2[C@H](C(C)(C)C)C4)cn1 [Example 10, (S)-6-(tert-butyl)-10-(1-methyl-1H-pyrazol-4-yl)-2-oxo-6,7-dihydro-2H-benzofuro[2,3-a]quinolizine-3-carboxylic acid] | > 25000 | < 100 |
| Cn1nccc1-c1ccc2c3c(oc2c1)-c1cc(=O)c(C(=O)O)cn1[C@H](C(C)(C)C)C3 [Example 11, (S)-6-(tert-butyl)-10-(1-methyl-1H-pyrazol-5-yl)-2-oxo-6,7-dihydro-2H-benzofuro[2,3-a]quinolizine-3-carboxylic acid] | > 25000 | < 100 |
| CC(C)(C)[C@@H]1Cc2c(oc3cc(C#N)ccc23)-c2cc(=O)c(C(=O)O)cn21 [Example 12, (S)-6-(tert-butyl)-10-cyano-2-oxo-6,7-dihydro-2H-benzofuro[2,3-a]quinolizine-3-carboxylic acid] | > 25000 | < 100 |
| CC(C)(C)[C@@H]1Cc2c(oc3cc(-c4cn[nH]c4)ccc23)-c2cc(=O)c(C(=O)O)cn21 [Example 13, (S)-6-(tert-butyl)-2-oxo-10-(1H-pyrazol-4-yl)-6,7-dihydro-2H-benzofuro[2,3-a]quinolizine-3-carboxylic acid] | > 25000 | < 100 |
| CC(C)(C)[C@@H]1Cc2c(oc3cc(-c4ccn[nH]4)ccc23)-c2cc(=O)c(C(=O)O)cn21 [Example 14, (S)-6-(tert-butyl)-2-oxo-10-(1H-pyrazol-5-yl)-6,7-dihydro-2H-benzofuro[2,3-a]quinolizine-3-carboxylic acid] | > 25000 | < 100 |
| CC(C)(C)[C@@H]1Cc2c(oc3cc(-c4ccco4)ccc23)-c2cc(=O)c(C(=O)O)cn21 [Example 15, (S)-6-(tert-butyl)-10-(furan-2-yl)-2-oxo-6,7-dihydro-2H-benzofuro[2,3-a]quinolizine-3-carboxylic acid] | – | < 100 |
| CC(C)(C)[C@@H]1Cc2c(oc3cc(-c4cnco4)ccc23)-c2cc(=O)c(C(=O)O)cn21 [Example 17, (S)-6-(tert-butyl)-10-(oxazol-5-yl)-2-oxo-6,7-dihydro-2H-benzofuro[2,3-a]quinolizine-3-carboxylic acid] | > 25000 | < 100 |
| CC(C)(C)[C@@H]1Cc2c(oc3cc(-c4cccs4)ccc23)-c2cc(=O)c(C(=O)O)cn21 [Example 18, (S)-6-(tert-butyl)-2-oxo-10-(thiophen-2-yl)-6,7-dihydro-2H-benzofuro[2,3-a]quinolizine-3-carboxylic acid] | – | < 100 |
| CC(C)(C)[C@@H]1Cc2c(oc3cc(-c4cnsc4)ccc23)-c2cc(=O)c(C(=O)O)cn21 [Example 19, (S)-6-(tert-butyl)-10-(isothiazol-4-yl)-2-oxo-6,7-dihydro-2H-benzofuro[2,3-a]quinolizine-3-carboxylic acid] | – | < 100 |
| CC(C)(C)[C@@H]1Cc2c(oc3cc(-c4ccsc4)ccc23)-c2cc(=O)c(C(=O)O)cn21 [Example 20, (S)-6-(tert-butyl)-2-oxo-10-(thiophen-3-yl)-6,7-dihydro-2H-benzofuro[2,3-a]quinolizine-3-carboxylic acid] | – | < 100 |
| CC(C)(C)[C@@H]1Cc2c(oc3cc(-c4nccs4)ccc23)-c2cc(=O)c(C(=O)O)cn21 [Example 21, (S)-6-(tert-butyl)-2-oxo-10-(thiazol-2-yl)-6,7-dihydro-2H-benzofuro[2,3-a]quinolizine-3-carboxylic acid] | 10000 to 25000 | < 100 |
| CC(C)(C)[C@@H]1Cc2c(oc3cc(-c4cscn4)ccc23)-c2cc(=O)c(C(=O)O)cn21 [Example 22, (S)-6-(tert-butyl)-2-oxo-10-(thiazol-4-yl)-6,7-dihydro-2H-benzofuro[2,3-a]quinolizine-3-carboxylic acid] | – | < 100 |
| CC(C)(C)[C@@H]1Cc2c(oc3cc(C4CC4)ccc23)-c2cc(=O)c(C(=O)O)cn21 [Example 23, (S)-6-(tert-butyl)-10-cyclopropyl-2-oxo-6,7-dihydro-2H-benzofuro[2,3-a]quinolizine-3-carboxylic acid] | 10000 to 25000 | < 100 |
| Cc1ccc2c3c(oc2c1)-c1cc(=O)c(C(=O)O)cn1[C@H](C(C)(C)C)C3 [Example 24, (S)-6-(tert-butyl)-10-methyl-2-oxo-6,7-dihydro-2H-benzofuro[2,3-a]quinolizine-3-carboxylic acid] | > 25000 | < 100 |
| CCc1ccc2c3c(oc2c1)-c1cc(=O)c(C(=O)O)cn1[C@H](C(C)(C)C)C3 [Example 25, (S)-6-(tert-butyl)-10-ethyl-2-oxo-6,7-dihydro-2H-benzofuro[2,3-a]quinolizine-3-carboxylic acid] | > 25000 | < 100 |
| CC(C)(C)[C@@H]1Cc2c(oc3c(-c4ccoc4)cccc23)-c2cc(=O)c(C(=O)O)cn21 [Example 26, (S)-6-(tert-butyl)-11-(furan-3-yl)-2-oxo-6,7-dihydro-2H-benzofuro[2,3-a]quinolizine-3-carboxylic acid] | 10000 to 25000 | < 100 |
| CC(C)(C)[C@@H]1Cc2c(oc3c(N4CCCC4)cccc23)-c2cc(=O)c(C(=O)O)cn21 [Example 40, (S)-6-(tert-butyl)-2-oxo-11-(pyrrolidin-1-yl)-6,7-dihydro-2H-benzofuro[2,3-a]quinolizine-3-carboxylic acid] | – | < 100 |
| Cc1cccc2c3c(oc12)-c1cc(=O)c(C(=O)O)cn1[C@H](C(C)(C)C)C3 [Example 44, (S)-6-(tert-butyl)-11-methyl-2-oxo-6,7-dihydro-2H-benzofuro[2,3-a]quinolizine-3-carboxylic acid] | – | 100 to 1000 |
| Cn1ccc(-c2cccc3c4c(oc23)-c2c(F)c(=O)c(C(=O)O)cn2[C@H](C(C)(C)C)C4)n1 [Example 56, (S)-6-(tert-butyl)-1-fluoro-11-(1-methyl-1H-pyrazol-3-yl)-2-oxo-6,7-dihydro-2H-benzofuro[2,3-a]quinolizine-3-carboxylic acid] | – | < 100 |
| CC(C)(C)[C@@H]1Cc2c(oc3c(N4CCC(F)(F)C4)cccc23)-c2c(F)c(=O)c(C(=O)O)cn21 [Example 60, (S)-6-(tert-butyl)-11-(3,3-difluoropyrrolidin-1-yl)-1-fluoro-2-oxo-6,7-dihydro-2H-benzofuro[2,3-a]quinolizine-3-carboxylic acid] | – | < 100 |
| CC(C)[C@@H]1Cc2c(oc3cc(-c4cccs4)ccc23)-c2cc(=O)c(C(=O)O)cn21 [Example 75, (S)-6-isopropyl-2-oxo-10-(thiophen-2-yl)-6,7-dihydro-2H-benzofuro[2,3-a]quinolizine-3-carboxylic acid] | – | < 100 |

From patent US10865211B2 (ENANTA PHARMACEUTICALS, INC, priority 2018, dated 2020)
